PubChem BioAssay AID1963978 (Molecular Pharmacology Branch, DTP, NCI, 2024)

System: 616215-338-R-J1-PDC spheroids with HUVEC/MSC, viability
Assay: Anticancer human tumor 616215-338-R-J1-PDC patient-derived colon adenocarcinoma cell line growth inhibition [PI3K]
Conditions: for IC50: curve of first compound; for viability, T/C: stronger effect = lower value; active means viability on the fitted dose curve at most 10% of control; inactive means the rest
In short: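 Spheroid viability read-out. Co-cultures contained the tumor line plus HUVEC and human MSCs. Each agent was paired with a PI3K inhibitor (inavolisib, alpelisib, duvelisib, copanlisib) across half-log dilutions starting at clinical Cmax, or at 10 microM when Cmax was unknown.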

[1] = second compound 0.0316 µM, first compound 0.0316 µM
[2] = second compound 0.0316 µM, first compound 0.1 µM
[3] = second compound 0.1 µM, first compound 0.0316 µM
[4] = second compound 0.1 µM, first compound 0.1 µM
[5] = second compound 0.316 µM, first compound 0.0316 µM
[6] = second compound 0.316 µM, first compound 0.1 µM
[7] = second compound 1 µM, first compound 0.0316 µM
[8] = second compound 1 µM, first compound 0.1 µM
[9] = second compound 3.16 µM, first compound 0.0316 µM
[10] = second compound 3.16 µM, first compound 0.1 µM
[11] = second compound 10 µM, first compound 0.0316 µM
[12] = second compound 10 µM, first compound 0.1 µM
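Further: spheroids exposed to agents for seven days before the viability read.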

CC(C)n1nc(-c2ccc3oc(N)nc3c2)c2c(N)ncnc21 + CC(Nc1ncnc2nc[nH]c12)c1cc2cccc(Cl)c2c(=O)n1-c1ccccc1
inactive: viability, T/C (second compound 0.0316 µM, first compound 0.000316 µM) 102% | viability, T/C (second compound 0.0316 µM, first compound 0.001 µM) 103% | viability, T/C (second compound 0.0316 µM, first compound 0.00316 µM) 102% | viability, T/C (second compound 0.0316 µM, first compound 0.01 µM) 124% | viability, T/C [1] 112% | viability, T/C [2] 86.9% | viability, T/C (second compound 0.1 µM, first compound 0.000316 µM) 103% | viability, T/C (second compound 0.1 µM, first compound 0.001 µM) 121% | viability, T/C (second compound 0.1 µM, first compound 0.00316 µM) 99.8% | viability, T/C (second compound 0.1 µM, first compound 0.01 µM) 109% | viability, T/C [3] 120% | viability, T/C [4] 88.6% | viability, T/C (second compound 0.316 µM, first compound 0.000316 µM) 95.5% | viability, T/C (second compound 0.316 µM, first compound 0.001 µM) 92.8% | viability, T/C (second compound 0.316 µM, first compound 0.00316 µM) 118% | viability, T/C (second compound 0.316 µM, first compound 0.01 µM) 110% | viability, T/C [5] 101% | viability, T/C [6] 77.4% | viability, T/C (second compound 1 µM, first compound 0.000316 µM) 94.8% | viability, T/C (second compound 1 µM, first compound 0.001 µM) 106% | viability, T/C (second compound 1 µM, first compound 0.00316 µM) 99.2% | viability, T/C (second compound 1 µM, first compound 0.01 µM) 118% | viability, T/C [7] 122% | viability, T/C [8] 80.5% | viability, T/C (second compound 3.16 µM, first compound 0.000316 µM) 123% | viability, T/C (second compound 3.16 µM, first compound 0.001 µM) 103% | viability, T/C (second compound 3.16 µM, first compound 0.00316 µM) 111% | viability, T/C (second compound 3.16 µM, first compound 0.01 µM) 115% | viability, T/C [9] 128% | viability, T/C [10] 68.5% | viability, T/C (second compound 10 µM, first compound 0.000316 µM) 110% | viability, T/C (second compound 10 µM, first compound 0.001 µM) 110% | viability, T/C (second compound 10 µM, first compound 0.00316 µM) 102% | viability, T/C (second compound 10 µM, first compound 0.01 µM) 113% | viability, T/C [11] 112% | viability, T/C [12] 66.8%
> 0.1 µM: IC50 (second compound 0.0316 µM) | IC50 (second compound 0.1 µM) | IC50 (second compound 0.316 µM) | IC50 (second compound 1 µM) | IC50 (second compound 3.16 µM) | IC50 (second compound 10 µM)

CC1(C)CCC(CN2CCN(c3ccc(C(=O)NS(=O)(=O)c4ccc(NCC5CCOCC5)c([N+](=O)[O-])c4)c(Oc4cnc5[nH]ccc5c4)c3)CC2)=C(c2ccc(Cl)cc2)C1 + CC(Nc1ncnc2nc[nH]c12)c1cc2cccc(Cl)c2c(=O)n1-c1ccccc1
inactive: viability, T/C [1] 98.3% | viability, T/C [2] 105% | viability, T/C (second compound 0.0316 µM, first compound 0.316 µM) 110% | viability, T/C (second compound 0.0316 µM, first compound 1 µM) 104% | viability, T/C (second compound 0.0316 µM, first compound 3.16 µM) 71.3% | viability, T/C [3] 109% | viability, T/C [4] 103% | viability, T/C (second compound 0.1 µM, first compound 0.316 µM) 101% | viability, T/C (second compound 0.1 µM, first compound 1 µM) 96.7% | viability, T/C (second compound 0.1 µM, first compound 3.16 µM) 74.2% | viability, T/C [5] 107% | viability, T/C [6] 103% | viability, T/C (second compound 0.316 µM, first compound 0.316 µM) 107% | viability, T/C (second compound 0.316 µM, first compound 1 µM) 103% | viability, T/C (second compound 0.316 µM, first compound 3.16 µM) 76.6% | viability, T/C [7] 101% | viability, T/C [8] 107% | viability, T/C (second compound 1 µM, first compound 0.316 µM) 108% | viability, T/C (second compound 1 µM, first compound 1 µM) 110% | viability, T/C (second compound 1 µM, first compound 3.16 µM) 80.8% | viability, T/C [9] 108% | viability, T/C [10] 111% | viability, T/C (second compound 3.16 µM, first compound 0.316 µM) 99.2% | viability, T/C (second compound 3.16 µM, first compound 1 µM) 123% | viability, T/C (second compound 3.16 µM, first compound 3.16 µM) 85% | viability, T/C [11] 118% | viability, T/C [12] 105% | viability, T/C (second compound 10 µM, first compound 0.316 µM) 105% | viability, T/C (second compound 10 µM, first compound 1 µM) 105% | viability, T/C (second compound 10 µM, first compound 3.16 µM) 94.9%
4.99 µM: IC50 (second compound 1 µM)
active: viability, T/C (second compound 0.0316 µM, first compound 10 µM) 4.22% | viability, T/C (second compound 0.1 µM, first compound 10 µM) 3.61% | viability, T/C (second compound 0.316 µM, first compound 10 µM) 2.7% | viability, T/C (second compound 1 µM, first compound 10 µM) 2.87% | viability, T/C (second compound 3.16 µM, first compound 10 µM) 2.42% | viability, T/C (second compound 10 µM, first compound 10 µM) 2.49%
4.79 µM: IC50 (second compound 0.316 µM)
4.56 µM: IC50 (second compound 0.0316 µM)
4.67 µM: IC50 (second compound 0.1 µM)
5.14 µM: IC50 (second compound 3.16 µM)
5.53 µM: IC50 (second compound 10 µM)
